Experimental data: ChEMBL document CHEMBL4177686, “Depsidone and xanthones from Garcinia xanthochymus with hypoglycemic activity and the mechanism of promoting glucose uptake in L6 myotubes” (Bioorg Med Chem, 2017)
Calls of active or inactive are those of the source. The calls are words filed in the database; no cut-off is given here.

Legend:
L6 [1] = assay: Increase in glucose uptake in rat L6 cells at 10 to 25 uM after 4 hrs; type: functional, cell-based
L6 [2] = assay: Increase in glucose uptake in rat L6 cells at <10 uM after 4 hrs; type: functional, cell-based
L6 [3] = assay: Increase in glucose uptake in rat L6 cells at 25 uM treated for 4 hrs post 30 mins AMPK inhibitor compound C treatment; type: functional, cell-based
L6 [4] = assay: Activation of PI3K/AKT/AMPK in rat L6 cells transfected with mOrange dye-based IRAP assessed as increase in GLUT4 translocation at 25 uM measured every 5 mins for 30 mins post 30 mins AMPK inhibitor compound C treatment by confocal microscopic analysis; type: cell-based
[5] = target: RAC-alpha serine/threonine-protein kinase (Rattus norvegicus) (UniProt P47196); assay: Activation of AKT in rat L6 cells assessed as GSK3beta phosphorylation at Ser 9 residues at 12.5 to 25 uM by Western blot analysis; type: cell-based
Sequence of RAC-alpha serine/threonine-protein kinase (Rattus norvegicus) (P47196 whole entry): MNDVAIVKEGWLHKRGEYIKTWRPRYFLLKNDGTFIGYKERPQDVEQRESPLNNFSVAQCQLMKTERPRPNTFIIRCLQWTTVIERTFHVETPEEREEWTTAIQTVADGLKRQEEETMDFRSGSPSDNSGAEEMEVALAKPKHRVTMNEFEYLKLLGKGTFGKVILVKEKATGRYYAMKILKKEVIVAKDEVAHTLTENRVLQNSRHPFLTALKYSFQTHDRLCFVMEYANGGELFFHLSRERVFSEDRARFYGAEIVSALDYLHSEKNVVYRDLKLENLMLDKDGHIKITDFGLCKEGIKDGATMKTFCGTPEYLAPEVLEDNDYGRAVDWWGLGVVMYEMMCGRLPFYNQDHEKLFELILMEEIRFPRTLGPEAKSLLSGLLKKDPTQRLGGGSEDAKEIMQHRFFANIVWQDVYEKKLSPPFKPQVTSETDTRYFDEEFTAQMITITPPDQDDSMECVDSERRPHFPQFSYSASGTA

L6 [6] = assay: Increase in glucose uptake in rat L6 cells at 25 to 100 uM after 4 hrs; type: functional, cell-based
[7] = target: RAC-alpha serine/threonine-protein kinase (Rattus norvegicus) (UniProt P47196); assay: Induction of AKT phosphorylation at Ser 473 residues in rat L6 cells by Western blot analysis; type: cell-based
L6 [8] = assay: Cytotoxicity against rat L6 cells assessed as reduction in cell viability at 25 uM after 4 hrs by MTT assay; type: cell-based; conditions: l6, 4 h
L6 [9] = assay: Induction of AMPK phosphorylation at […] residues in rat L6 cells at 25 uM by Western blot analysis; type: cell-based
L6 [10] = assay: Increase in glucose uptake in rat L6 cells at 25 uM treated for 4 hrs post 15 mins PI3K inhibitor wortmanin treatment; type: functional, cell-based
[11] = target: RAC-alpha serine/threonine-protein kinase (Rattus norvegicus) (UniProt P47196); assay: Induction of AKT phosphorylation at Ser 473 residues in rat L6 cells at 12.5 to 25 uM by Western blot analysis; type: cell-based
L6 [12] = assay: Activation of PI3K/AKT/AMPK in rat L6 cells transfected with mOrange dye-based IRAP assessed as increase in GLUT4 translocation at 25 uM measured every 5 mins for 30 mins post 15 mins PI3K inhibitor wortmanin treatment by confocal microscopic analysis; type: cell-based
L6 [13] = assay: Increase in glucose uptake in rat L6 cells at 25 uM after 4 hrs relative to control; type: functional
L6 [14] = assay: Activation of PI3K/AKT/AMPK in rat L6 cells transfected with mOrange dye-based IRAP assessed as increase in GLUT4 translocation at 25 uM measured every 5 mins for 30 mins by confocal microscopic analysis relative to basal control; type: cell-based
L6 [15] = assay: Increase in glucose uptake in rat L6 cells at 25 uM after 2 to 4 hrs; type: functional, cell-based
L6 [16] = assay: Activation of AMPK in rat L6 cells assessed as ACC phosphorylation at Ser 79 residues at 25 uM by Western blot analysis; type: cell-based
L6 [17] = assay: Cytotoxicity against rat L6 cells assessed as reduction in cell viability at 1 to 100 uM after 4 hrs by MTT assay; type: cell-based; conditions: l6, 4 h
L6 [18] = assay: Increase in glucose uptake in rat L6 cells at 2 mM treated for 4 hrs post 30 mins AMPK inhibitor compound C treatment; type: functional, cell-based
L6 [19] = assay: Increase in glucose uptake in rat L6 cells at 2 mM after 4 hrs relative to control; type: functional
L6 [20] = assay: Increase in glucose uptake in rat L6 cells at 100 uM after 4 hrs; type: functional, cell-based
L6 [21] = assay: Activation of AMPK phosphorylation in rat L6 cells assessed as ACC phosphorylation at Ser 79 residues at 12.5 to 25 uM by Western blot analysis; type: cell-based
L6 [22] = assay: Induction of AMPK phosphorylation at […] residues in rat L6 cells at 12.5 to 25 uM by Western blot analysis; type: cell-based

C=CC(C)(C)c1cc(O)c2oc3c(O)cccc3c(=O)c2c1O
Activity (L6 [1]): Active
Activity (L6 [2]): inactive
Activity (L6 [3]): Active
Activity (L6 [4]): inactive
Activity [5]: Active
Activity (L6 [6]): inactive
Activity [7]: Dose-dependent effect
Activity (L6 [8]): Non-Toxic
Activity (L6 [9]): Active
Activity (L6 [10]): inactive
Activity [11]: Active
Activity (L6 [12]): inactive
Activity (L6 [13]): 208.4%
Activity (L6 [14]): Active
Activity (L6 [15]): Active
Activity (L6 [16]): Active
Activity (L6 [17]): Non-Toxic

CC1(C)C=Cc2c(c(O)c3oc4c(O)ccc(O)c4c(=O)c3c2O)O1
Activity (L6 [8]): Non-Toxic
Activity (L6 [13]): inactive

CN(C)C(=N)NC(=N)N [METFORMIN]
Activity (L6 [18]): Active
Activity (L6 [19]): 167.2%

CC(C)=CCc1c(O)cc(O)c2c(=O)c3cccc(O)c3oc12
Activity (L6 [8]): Non-Toxic

CC1(C)C=Cc2c(c(O)c3oc4ccc(O)cc4c(=O)c3c2O)O1
Activity (L6 [8]): Non-Toxic

COc1cc(O)c2c(=O)c3cccc(O)c3oc2c1
Activity (L6 [8]): Non-Toxic

COc1c(O)ccc2oc3c(O)cccc3c(=O)c12
Activity (L6 [8]): Non-Toxic

O=c1c2cccc(O)c2oc2ccc(O)c(O)c12
Activity (L6 [8]): Non-Toxic

CC(C)=CCc1cc(O)c(O)c2oc3cc(O)cc(O)c3c(=O)c12
Activity (L6 [8]): Non-Toxic
Activity (L6 [13]): inactive

COc1c(O)ccc2c(=O)c3c(O)ccc(OC)c3oc12
Activity (L6 [8]): Non-Toxic

C=CC(C)(C)c1cc(O)c(O)c2c(=O)c3cc(CC=C(C)C)c(O)c(O)c3oc12
Activity (L6 [1]): Active
Activity (L6 [20]): inactive
Activity (L6 [2]): inactive
Activity (L6 [3]): Active
Activity (L6 [4]): inactive
Activity [5]: Active
Activity (L6 [6]): inactive
Activity (L6 [8]): Non-Toxic
Activity (L6 [10]): Active
Activity [11]: Active
Activity (L6 [21]): Active
Activity (L6 [12]): inactive
Activity (L6 [22]): Active
Activity (L6 [13]): 166.2%
Activity (L6 [14]): Active
Activity (L6 [15]): Active
Activity (L6 [17]): Non-Toxic

CC(C)=CCc1c(O)c(O)c2oc3c(CC=C(C)C)c(O)cc(O)c3c(=O)c2c1CCC(C)(C)O
Activity (L6 [8]): Non-Toxic

CC(C)=CCC/C(C)=C/Cc1c(O)cc2c(c1O)C(=O)Oc1c(CC=C(C)C)cc(O)c(O)c1O2
Activity (L6 [8]): Non-Toxic

CC(C)=CCC/C(C)=C/Cc1c(O)c(O)c2oc3cc(O)cc(O)c3c(=O)c2c1CCC(C)(C)O
Activity (L6 [8]): Non-Toxic

CC1(C)C=Cc2c(cc3oc4c(O)cccc4c(=O)c3c2O)O1
Activity (L6 [8]): Non-Toxic

COc1c(O)c(CC=C(C)C)cc2c(=O)c3c(O)ccc(O)c3oc12
Activity (L6 [8]): Non-Toxic

COc1c2c(c(O)c3c(=O)c4c(O)ccc(O)c4oc13)C=CC(C)(C)O2
Activity (L6 [8]): Non-Toxic

CC(C)=CCc1c(O)c(O)c2oc3c(O)ccc(O)c3c(=O)c2c1CC=C(C)C
Activity (L6 [8]): Non-Toxic

CC(C)=CCC/C(C)=C/Cc1cc2c(=O)c3c(O)cc(O)cc3oc2c(O)c1O
Activity (L6 [8]): Non-Toxic
Activity (L6 [13]): inactive

CC(C)=CCc1c(O)c(O)c2oc3c(CC=C(C)C)c(O)cc(O)c3c(=O)c2c1CC=C(C)C
Activity (L6 [8]): Non-Toxic

CC(C)=CCc1c(O)c(O)c2oc3c4c(cc(O)c3c(=O)c2c1CC=C(C)C)OC(C)(C)C=C4
Activity (L6 [8]): Non-Toxic
Activity (L6 [13]): 195.28%
